Reference: publication PMC6274026 (Molecules, 2016)
Values joined by “and” are separate entries in the source; they are usually repeats but may differ in a detail not shown here. Equal entries are not always repeated. Where two headings read alike, the source gives them in different places.

Columns and labels:
[1] = tested on: MCF-10A; conditions: for Potency compared to control POD: relative to POD; for Potency compared to control VP-16: relative to VP-16
[2] = tested on: MCF-10A; assay: Clonogenicity (recovery) assay, 72 h post-treatment, SRB
[3] = tested on: MCF-7; assay: as above; conditions: for percentage of recovery: MCF-7, 0.08 µg/mL, 72 h post-treatment; for effect on proliferation and recovery after treatment: MCF-7, 10, 2, and 0.4 µg/mL, in words
[4] = tested on: MDA-MB-231; conditions: for Selectivity index: IC50 MCF-10A / IC50 MDA-MB-231; for percentage of survival: 72 h; for Potency compared to control POD: MDA-MB-231, relative to POD; for Potency compared to control VP-16: MDA-MB-231, relative to VP-16; for IC50: read-out: Cytotoxic activity IC50, MDA-MB-231, 72 h, mean of three independent experiments ± S.D.
[5] = tested on: BT-549; conditions: for percentage of survival: 72 h; for Potency compared to control POD: BT-549, relative to POD; for Potency compared to control VP-16: BT-549, relative to VP-16; for selectivity according to the selectivity criteria (SI ≥ 10 selective): BT-549 vs MCF-10A, in words; for IC50: read-out: Cytotoxic activity IC50, BT-549, 72 h, mean of three independent experiments ± S.D.
[6] = tested on: MDA-MB-231; assay: Clonogenicity (recovery) assay, 72 h post-treatment, SRB; conditions: for percentage of recovery: 72 h post-treatment; for effect on proliferation and recovery after treatment: in words
[7] = in vitro; conditions: human, Cytotoxic activity IC50, MCF-10A, 72 h, mean of three independent experiments ± S.D.
[8] = tested on: BT-549; assay: Clonogenicity (recovery) assay, 72 h post-treatment, SRB; conditions: for percentage of recovery: 72 h post-treatment; for effect on proliferation and recovery after treatment: in words
[9] = tested on: human protein tyrosyl-DNA phosphodiesterase 1 (TDP1); parameters: method as in ref 29 = [29]; 29. NCBI, National Center for Biotechnology Information PubChem BioAssay Database 2013 AID=686981 Available online: https://pubchem.ncbi.nlm.nih.gov/bioassay/686981 (accessed on 30 March 2016); conditions: qHTS, DT40 cell line, in words; cited from earlier work
[10] = tested on: anthrax lethal toxin; conditions: qHTS, ME-180 cells, in words; cited from earlier work
[11] = tested on: MCF-7; conditions: for Selectivity index: IC50 MCF-10A / IC50 MCF-7; for percentage of survival: MCF-7, 0.08 µg/mL, 72 h; for Potency compared to control POD: MCF-7, relative to POD; for Potency compared to control VP-16: MCF-7, relative to VP-16; for IC50: read-out: Cytotoxic activity IC50, MCF-7, 72 h, mean of three independent experiments ± S.D.
[12] = tested on: Lewis lung carcinoma; parameters: method as in ref 31 = [31]; 31. NCBI, National Center for Biotechnology Information PubChem BioAssay Database 2007 AID=192, 256 and 270 Available online: https://pubchem.ncbi.nlm.nih.gov/bioassay/192, 256, and 270 (accessed on 3); conditions: subcutaneous inoculation, in words; cited from earlier work

COc1cc([C@@H]2c3cc4c(cc3[C@H](OC(C)=O)[C@H]3COC(=O)[C@H]23)OCO4)cc(OC)c1OC [Compound 2, acetylpodophyllotoxin]
percentage of survival ([1]; 0.08 µg/mL, 72 h): 61% ± 7.8% | Potency compared to control POD [1]: 0.062 | Potency compared to control VP-16 [1]: 0.147 | percentage of recovery ([2]; MCF-10A, 0.08 µg/mL, 72 h post-treatment): 85% ± 4.5% | effect on proliferation and recovery after treatment ([2]; MCF-10A, 10, 2, and 0.4 µg/mL, in words): dose-dependently inhibited the proliferation and the recovery of cells | percentage of recovery [3]: 209% ± 12.4% | effect on proliferation and recovery after treatment [3]: dose-dependently inhibited the proliferation and the recovery of cells | Selectivity index [4]: 1.77 | percentage of survival ([4]; MDA-MB-231, 0.08 µg/mL): 101% ± 5.7% | percentage of survival ([4]; MDA-MB-231, 0.4 µg/mL): 21% ± 0.6% | Potency compared to control POD [4]: 0.136 | Potency compared to control VP-16 [4]: 0.217 | IC50 [4]: 180 ± 3 nM | percentage of survival ([5]; BT-549, 0.08 µg/mL): 96% ± 5.5% | percentage of survival ([5]; BT-549, 0.4 µg/mL): 61% ± 10.6% | Potency compared to control POD [5]: 0.465 | Potency compared to control VP-16 [5]: 14.1 and 14.151 | selectivity according to the selectivity criteria (SI ≥ 10 selective) [5]: selective compound | IC50 [5]: 11 ± 4 nM | percentage of recovery ([6]; MDA-MB-231, 0.4 µg/mL): 36% ± 16.8% | percentage of recovery ([6]; MDA-MB-231, 0.8 µg/mL): 194% ± 14.7% | effect on proliferation and recovery after treatment ([6]; MDA-MB-231, 10 and 2 µg/mL): completely inhibited proliferation and prevented recovery | IC50 at 72 h [7]: 318 ± 12 nM | percentage of recovery ([8]; BT-549, 0.4 µg/mL): around 114% ± 18.5% | percentage of recovery ([8]; BT-549, 0.8 µg/mL (same concentrations)): ~191% ± 27.1% | effect on proliferation and recovery after treatment ([8]; BT-549, 10 and 2 µg/mL): completely inhibited proliferation and prevented recovery | inhibitory activity against TDP1 [9]: inhibitory activity | effect on anthrax lethal toxin internalization [10]: interferes in the internalization process | Selectivity index [11]: 2.42 | percentage of survival [11]: 121% ± 10.8% | Potency compared to control POD [11]: 0.135 | Potency compared to control VP-16 [11]: 0.942 | IC50 [11]: 132 ± 17 nM

COc1ccc([C@@H]2c3cc4c(cc3C[C@H]3COC(=O)[C@@H]32)OCO4)cc1OC [Compound 3, 5′-demethoxydeoxypodophyllotoxin]
IC50 ([1]; read-out: Cytotoxic activity IC50, 72 h, mean of three independent experiments ± S.D.): 92 ± 9 nM | Potency compared to control POD [1]: 0.214 | Potency compared to control VP-16 [1]: 0.507 | effect on proliferation in the cytotoxicity and clonogenicity assays ([2]; MCF-10A, the four tested concentrations, in words): completely inhibited proliferation | percentage of recovery [3]: 111% ± 13% | effect on proliferation and recovery after treatment [3]: cytotoxicity with a lack of recovery | biological activity in Lewis lung carcinoma model [12]: did not show biological activities | Selectivity index [4]: 0.64 | Potency compared to control POD [4]: 0.168 | Potency compared to control VP-16 [4]: 0.268 | IC50 [4]: 145 ± 45 nM | Potency compared to control POD [5]: 0.252 | Potency compared to control VP-16 [5]: 7.6 and 7.661 | selectivity according to the selectivity criteria (SI ≥ 10 selective) [5]: non-selective compound | IC50 [5]: 21 ± 3 nM | effect on proliferation and recovery after treatment ([6]; MDA-MB-231, 10, 2, and 0.4 µg/mL): cytotoxicity with a lack of recovery | IC50 at 72 h [7]: 90 ± 9 nM | effect on proliferation and recovery after treatment ([8]; BT-549, 10, 2, and 0.4 µg/mL): cytotoxicity with a lack of recovery | Selectivity index [11]: 2.33 | percentage of survival [11]: 55% ± 9.9% | Potency compared to control POD [11]: 0.449 | Potency compared to control VP-16 [11]: 3.124 | IC50 [11]: 40 ± 11 nM
